Reference: ChEMBL document CHEMBL4689842, “EUbOPEN Chemogenomics Library wave 1” (2021)

Legend:
Format in all cases: toxicity, cell-based
[1] = test system: HEK-293T; assay: Incucyte cell viability with HEK293T; details: human, 10 µM, compound concentration 10 uM
[2] = test system: Fibroblast; assay: Incucyte cell viability with human fibroblast; details: 10 µM, compound concentration 10 uM
[3] = test system: U2OS; assay: Incucyte cell viability with U2OS; details: human, 10 µM, compound concentration 10 uM
[4] = 0 h, replicate number 1, timepoint 0 hours
[5] = 0 h, replicate number 2, timepoint 0 hours
[6] = 6 h, replicate number 1, timepoint 6 hours
[7] = 12 h, replicate number 1, timepoint 12 hours
[8] = 18 h, replicate number 1, timepoint 18 hours
[9] = 24 h, replicate number 1, timepoint 24 hours
[10] = 24 h, replicate number 2, timepoint 24 hours
[11] = 6 h, replicate number 2, timepoint 6 hours
[12] = 18 h, replicate number 2, timepoint 18 hours
[13] = 12 h, replicate number 2, timepoint 12 hours
Further: filed as whole numbers so only -1 and 0 and 1 occur.

Row | Compound | Growth Rate [1, 4] | Growth Rate [1, 6] | Growth Rate [1, 7] | Growth Rate [1, 8] | Growth Rate [1, 9] | Growth Rate [2, 4] | Growth Rate [2, 6] | Growth Rate [2, 7] | Growth Rate [2, 8] | Growth Rate [2, 9] | Growth Rate [2, 10] | Growth Rate [3, 4] | Growth Rate [3, 7] | Growth Rate [3, 8] | Growth Rate [3, 9] | Growth Rate [1, 10] | Growth Rate [2, 11] | Growth Rate [2, 13] | Growth Rate [2, 12] | Growth Rate [3, 6] | also measured
1 | Cc1cn2cc(CC(=O)N3CCC4(CC3)CN(Cc3ccc(-n5nccn5)cc3Cl)C4)nc2s1 | 1 | 0 | 0 | 0 | 0 | 1 | 0 | 0 | 0 | 1 | 0 | 0 | 1 | 1 | 1 | – | – | – | – | – | Growth Rate [1, 5]: 0; Growth Rate [3, 11]: 0
2 | OCCn1cc(-c2ccc3c(c2)CCC3=NO)c(-c2ccncc2)n1 | 0 | – | 1 | 0 | 0 | 0 | – | 1 | 1 | 1 | – | 1 | 1 | 1 | 1 | 1 | 1 | 0 | 0 | 1 | Growth Rate [1, 12]: 1; Growth Rate [3, 12]: 0
3 | COc1cc(C#N)ccc1S(=O)(=O)Nc1ccc2c(c1)cc(C)c(=O)n2C | 1 | 0 | 0 | 0 | 0 | – | 1 | 0 | 0 | 1 | 0 | 0 | 0 | 0 | 0 | – | 0 | – | – | 0 | Growth Rate [1, 12]: 1; Growth Rate [2, 5]: 0; Growth Rate [3, 11]: 1; Growth Rate [3, 13]: 1; Growth Rate [3, 12]: 1; Growth Rate [3, 10]: 1
4 | CCCOc1ccn2c(C(C)=O)cc(-c3cccc(OC)c3)c2c1 | 0 | – | – | – | – | 0 | – | – | – | 1 | – | 0 | 1 | 1 | 1 | 1 | 0 | 1 | 0 | 0 | –
5 | C/C(=C/C=C/C(C)=C/C(=O)O)c1cc(C(C)(C)C)cc(C(C)(C)C)c1OCC(F)F | 0 | 0 | 0 | 0 | 0 | 0 | 0 | 0 | 0 | 0 | – | 0 | 1 | 1 | 1 | – | – | – | 1 | – | –
6 | CCOP(=O)(OCC)C(=Cc1cc(C(C)(C)C)c(O)c(C(C)(C)C)c1)P(=O)(OCC)OCC | 0 | – | 0 | 0 | 0 | – | 0 | 0 | 0 | 0 | – | 1 | 0 | 0 | 0 | – | – | – | 1 | – | Growth Rate [1, 11]: 0; Growth Rate [3, 5]: 0; Growth Rate [3, 11]: 0
7 | CCc1cc(Nc2nccc(-c3c(-c4ccc(OC)c(C(=O)Nc5c(F)cccc5F)c4)nc4ccccn34)n2)c(OC)cc1N1CCC(N2CCN(S(C)(=O)=O)CC2)CC1 | 1 | 0 | 0 | 0 | 0 | 1 | 1 | 1 | 1 | 1 | 0 | – | 1 | 1 | 1 | 1 | 0 | 0 | 0 | 1 | Growth Rate [1, 5]: 0; Growth Rate [1, 13]: 1; Growth Rate [3, 12]: 0
8 | CCN(Cc1ccc(Cl)cc1)c1ncc(C(=O)NCCCN2CCCC2=O)c(NC2CCCC2)n1 | 0 | – | – | – | – | – | 1 | 1 | 1 | 1 | – | – | 1 | 1 | 1 | – | 0 | 0 | – | 1 | Growth Rate [2, 5]: 0; Growth Rate [3, 5]: 0
9 | CCCCN(Cc1ccccc1)C(=O)c1ccc(S(=O)(=O)Nc2ccccc2)cc1 | 0 | 1 | – | – | – | 0 | – | 1 | 1 | 0 | 1 | – | 1 | 1 | 1 | 1 | 0 | 0 | 0 | 1 | Growth Rate [1, 11]: 0; Growth Rate [1, 13]: 1; Growth Rate [2, 5]: 1; Growth Rate [3, 12]: 0; Growth Rate [3, 10]: 0
